Measured values taken from the supplement of paper PMC10627819.

What was measured:
B. subtilis 168 [1] = test: fitness (endpoint OD595 vs no drug) (fraction); higher = more growth
Method in brief: (§1)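 Bacterial growth was followed in 384-well plates seeded at OD595 0.01, with 30 µl per well, or 55 µl for S. pneumoniae, in TSB, LB Lennox or CY at 37 °C. OD595 was read every 30 min for 14 h, and each reading had the first reading subtracted as background. Fitness is the background-corrected optical density at entry into stationary phase divided by the robust mean of the no-drug control wells. This ratio is capped at 1.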

S. aureus Newman [2] = test: as above
Method in brief: as §1

S. pneumoniae D39V [3] = test: as above
Method in brief: as §1

B. subtilis 168 [4] = test: Bliss interaction score (quartile over a dose matrix) (fitness difference); higher = more antagonism (negative = synergy)
Method in brief: (§2)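 Values were capped at 1 after dividing OD595 at stationary-phase entry by the plate's robust no-drug mean. This ratio is fitness, and single-drug fitness was inferred from the combination data. The Bliss score is observed minus product-expected fitness, given as quartiles over technical, biological and donor/recipient replicates.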

S. aureus DSM 20231 = test: as above
Method in brief: as §2

S. aureus Newman [5] = test: as above
Method in brief: as §2

S. pneumoniae D39V [6] = test: as above
Method in brief: as §2
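Throughout, for Bliss interaction score (quartile over a dose matrix): first quartile when negative (synergy) and third quartile when positive (antagonism).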

CC1=C(C(=O)O)N2C(=O)[C@@H](NC(=O)[C@H](N)c3ccccc3)[C@H]2SC1 [Cephalexin] + Cc1onc(-c2ccccc2)c1C(=O)N[C@@H]1C(=O)N2[C@@H]1SC(C)(C)[C@@H]2C(=O)O [Oxacillin]
Conditions	fitness
B. subtilis 168 [1], first compound 0.125 µg/mL, partner 0.002 µg/mL	0.975
B. subtilis 168 [1], first compound 0.125 µg/mL, partner 0.004 µg/mL	0.879
B. subtilis 168 [1], first compound 0.125 µg/mL, partner 0.008 µg/mL	0.896
B. subtilis 168 [1], first compound 0.25 µg/mL, partner 0.002 µg/mL	0.911
B. subtilis 168 [1], first compound 0.25 µg/mL, partner 0.004 µg/mL	0.948
B. subtilis 168 [1], first compound 0.25 µg/mL, partner 0.008 µg/mL	0.879
B. subtilis 168 [1], first compound 0.5 µg/mL, partner 0.002 µg/mL	0.925
B. subtilis 168 [1], first compound 0.5 µg/mL, partner 0.004 µg/mL	0.961
B. subtilis 168 [1], first compound 0.5 µg/mL, partner 0.008 µg/mL	0.97
S. aureus Newman [2], first compound 0.25 µg/mL, partner 0.0156 µg/mL	0.803
S. aureus Newman [2], first compound 0.25 µg/mL, partner 0.0312 µg/mL	0.761
S. aureus Newman [2], first compound 0.25 µg/mL, partner 0.0625 µg/mL	0.727
S. aureus Newman [2], first compound 0.5 µg/mL, partner 0.0156 µg/mL	0.768
S. aureus Newman [2], first compound 0.5 µg/mL, partner 0.0312 µg/mL	0.749
S. aureus Newman [2], first compound 0.5 µg/mL, partner 0.0625 µg/mL	0.675
S. aureus Newman [2], first compound 1 µg/mL, partner 0.0156 µg/mL	0.721
S. aureus Newman [2], first compound 1 µg/mL, partner 0.0312 µg/mL	0.72
S. aureus Newman [2], first compound 1 µg/mL, partner 0.0625 µg/mL	0.651
S. pneumoniae D39V [3], first compound 1 µg/mL, partner 0.02 µg/mL	0.171
S. pneumoniae D39V [3], first compound 1 µg/mL, partner 0.04 µg/mL	0.0188
S. pneumoniae D39V [3], first compound 2 µg/mL, partner 0.01 µg/mL	0.1
S. pneumoniae D39V [3], first compound 2 µg/mL, partner 0.02 µg/mL	0.044
S. pneumoniae D39V [3], first compound 2 µg/mL, partner 0.04 µg/mL	0.0313
S. pneumoniae D39V [3], first compound 4 µg/mL, partner 0.01 µg/mL	0.0222
S. pneumoniae D39V [3], first compound 4 µg/mL, partner 0.02 µg/mL	0.0259
S. pneumoniae D39V [3], first compound 4 µg/mL, partner 0.04 µg/mL	0.0275

fitness, one replicate
Conditions	first compound 0.125 µg/mL	first compound 0.25 µg/mL	first compound 0.5 µg/mL	first compound 1 µg/mL
B. subtilis 168 [1], partner 0.075 µg/mL	–	0.65	0.551	0.563
B. subtilis 168 [1], partner 0.15 µg/mL	–	0.0401	0.0556	0.0643
B. subtilis 168 [1], partner 0.3 µg/mL	–	0.0429	0.0316	0.051
S. pneumoniae D39V [3], partner 0.01 µg/mL	≥ 1	0.989	0.99	–
S. pneumoniae D39V [3], partner 0.02 µg/mL	0.92	0.897	0.886	–
S. pneumoniae D39V [3], partner 0.04 µg/mL	0.175	0.196	0.124	–

Conditions	Bliss interaction score
B. subtilis 168 [4]	0.0457
S. aureus DSM 20231	0.0592
S. aureus Newman [5]	0.0632
S. pneumoniae D39V [6]	-0.216

Cc1onc(-c2ccccc2)c1C(=O)N[C@@H]1C(=O)N2[C@@H]1SC(C)(C)[C@@H]2C(=O)O [Oxacillin] + CN(C)c1cc(NC(=O)CNC(C)(C)C)c(O)c2c1C[C@H]1C[C@H]3[C@H](N(C)C)C(O)=C(C(N)=O)C(=O)[C@@]3(O)C(O)=C1C2=O [Tigecycline]
Conditions	fitness
B. subtilis 168 [1], first compound 0.002 µg/mL, partner 0.039 µg/mL	≥ 1
B. subtilis 168 [1], first compound 0.002 µg/mL, partner 0.078 µg/mL	0.976
B. subtilis 168 [1], first compound 0.002 µg/mL, partner 0.156 µg/mL	0.992
B. subtilis 168 [1], first compound 0.004 µg/mL, partner 0.039 µg/mL	0.963
B. subtilis 168 [1], first compound 0.004 µg/mL, partner 0.078 µg/mL	0.943
B. subtilis 168 [1], first compound 0.004 µg/mL, partner 0.156 µg/mL	0.95
B. subtilis 168 [1], first compound 0.008 µg/mL, partner 0.039 µg/mL	0.998
B. subtilis 168 [1], first compound 0.008 µg/mL, partner 0.078 µg/mL	0.945
B. subtilis 168 [1], first compound 0.008 µg/mL, partner 0.156 µg/mL	0.962
S. aureus Newman [2], first compound 0.0156 µg/mL, partner 0.039 µg/mL	0.794
S. aureus Newman [2], first compound 0.0156 µg/mL, partner 0.078 µg/mL	0.798
S. aureus Newman [2], first compound 0.0156 µg/mL, partner 0.156 µg/mL	0.778
S. aureus Newman [2], first compound 0.0312 µg/mL, partner 0.039 µg/mL	0.751
S. aureus Newman [2], first compound 0.0312 µg/mL, partner 0.078 µg/mL	0.762
S. aureus Newman [2], first compound 0.0312 µg/mL, partner 0.156 µg/mL	0.745
S. aureus Newman [2], first compound 0.0625 µg/mL, partner 0.039 µg/mL	0.641
S. aureus Newman [2], first compound 0.0625 µg/mL, partner 0.078 µg/mL	0.663
S. aureus Newman [2], first compound 0.0625 µg/mL, partner 0.156 µg/mL	0.688
S. pneumoniae D39V [3], first compound 0.01 µg/mL, partner 0.65 µg/mL	0.928
S. pneumoniae D39V [3], first compound 0.01 µg/mL, partner 1.3 µg/mL	0.951
S. pneumoniae D39V [3], first compound 0.01 µg/mL, partner 2.6 µg/mL	0.957
S. pneumoniae D39V [3], first compound 0.02 µg/mL, partner 0.65 µg/mL	0.904
S. pneumoniae D39V [3], first compound 0.02 µg/mL, partner 1.3 µg/mL	0.891
S. pneumoniae D39V [3], first compound 0.02 µg/mL, partner 2.6 µg/mL	0.875
S. pneumoniae D39V [3], first compound 0.04 µg/mL, partner 1.3 µg/mL	0.463
S. pneumoniae D39V [3], first compound 0.04 µg/mL, partner 2.6 µg/mL	0.531

fitness, B. subtilis 168 [1], one replicate
Conditions	first compound 0.0078 µg/mL	first compound 0.0155 µg/mL	first compound 0.031 µg/mL	first compound 0.075 µg/mL	first compound 0.15 µg/mL	first compound 0.3 µg/mL
partner 0.039 µg/mL	–	–	–	0.507	0.0264	0.0457
partner 0.078 µg/mL	–	–	–	0.549	0.0459	0.0479
partner 0.125 µg/mL	≥ 1	0.964	0.968	–	–	–
partner 0.156 µg/mL	–	–	–	0.607	0.049	0.0616
partner 0.25 µg/mL	0.962	≥ 1	0.923	–	–	–
partner 0.5 µg/mL	≥ 1	0.976	0.857	–	–	–

Conditions	Bliss interaction score
B. subtilis 168 [4]	0.0355
S. aureus DSM 20231	-0.0365
S. aureus Newman [5]	0.0567
S. pneumoniae D39V [6]	0.0953

CNC(C)C1CCC(N)C(OC2C(N)CC(N)C(OC3OCC(C)(O)C(NC)C3O)C2O)O1 (stereo not drawn) [Gentamicin] + CC1=C\[C@@H](O)CC(=O)Cc2nc(co2)C(=O)N2CCC=C2C(=O)O[C@H](C(C)C)[C@H](C)/C=C/C(=O)NC\C=C\1 [Virginiamycin M1]
fitness, main component drawn
Conditions	partner 0.0625 µg/mL	partner 0.125 µg/mL	partner 0.25 µg/mL	partner 0.5 µg/mL	partner 1 µg/mL	partner 2 µg/mL
B. subtilis 168 [1], first compound 0.0625 µg/mL	0.895	0.897	0.905	–	–	–
B. subtilis 168 [1], first compound 0.25 µg/mL	0.0328	0.0454	0.0523	–	–	–
S. aureus Newman [2], first compound 0.5 µg/mL	0.959	0.996	0.995	–	–	–
S. aureus Newman [2], first compound 1 µg/mL	≥ 1	≥ 1	≥ 1	–	–	–
S. aureus Newman [2], first compound 2 µg/mL	≥ 1	≥ 1	≥ 1	–	–	–
S. pneumoniae D39V [3], first compound 2 µg/mL	–	–	–	0.973	≥ 1	0.952
S. pneumoniae D39V [3], first compound 4 µg/mL	–	–	–	0.99	≥ 1	0.973
S. pneumoniae D39V [3], first compound 8 µg/mL	–	–	–	0.991	≥ 1	0.943

fitness, one replicate, main component drawn
Conditions	first compound 1 µg/mL	first compound 2 µg/mL	first compound 4 µg/mL	first compound 8 µg/mL
S. aureus Newman [2], partner 0.5 µg/mL	0.849	0.873	0.22	–
S. aureus Newman [2], partner 1 µg/mL	0.961	≥ 1	0.0961	–
S. aureus Newman [2], partner 2 µg/mL	0.849	0.792	0.0867	–
S. pneumoniae D39V [3], partner 0.15 µg/mL	–	≥ 1	≥ 1	≥ 1
S. pneumoniae D39V [3], partner 0.3 µg/mL	–	≥ 1	≥ 1	0.944

main component drawn
Conditions	Bliss interaction score
B. subtilis 168 [4]	-0.0977
S. aureus DSM 20231	0.094
S. aureus Newman [5]	-0.0365
S. pneumoniae D39V [6]	0.0786

CC1=C(C(=O)O)N2C(=O)[C@@H](NC(=O)[C@H](N)c3ccccc3)[C@H]2SC1 [Cephalexin] + CN1C2=CC=CC=C2N=C3C1=CC=CC3=O [Pyocyanin]
fitness
Conditions	first compound 0.125 µg/mL	first compound 0.25 µg/mL	first compound 0.5 µg/mL	first compound 1 µg/mL
B. subtilis 168 [1], partner 1.25 µg/mL	0.923	0.916	0.881	–
B. subtilis 168 [1], partner 2.5 µg/mL	0.874	0.836	0.823	–
B. subtilis 168 [1], partner 5 µg/mL	0.719	0.686	0.679	–
S. aureus Newman [2], partner 1.25 µg/mL	–	0.928	0.92	0.823
S. aureus Newman [2], partner 2.5 µg/mL	–	0.905	0.892	–
S. aureus Newman [2], partner 5 µg/mL	–	0.604	0.559	–

fitness, S. pneumoniae D39V [3], one replicate
Conditions	first compound 0.125 µg/mL	first compound 0.25 µg/mL	first compound 0.5 µg/mL	first compound 1 µg/mL	first compound 2 µg/mL	first compound 4 µg/mL
partner 0.325 µg/mL	0.976	≥ 1	≥ 1	0.817	0.328	0.0365
partner 0.65 µg/mL	0.933	≥ 1	≥ 1	0.891	0.65	0.158
partner 1.3 µg/mL	0.762	0.805	0.822	–	–	–

Conditions	Bliss interaction score
B. subtilis 168 [4]	-0.0454
S. aureus DSM 20231	0.0604
S. aureus Newman [5]	0.0862
S. pneumoniae D39V [6]	0.0919

CC[C@H]1OC(=O)[C@H](C)[C@@H](O[C@H]2C[C@@](C)(OC)[C@@H](O)[C@H](C)O2)[C@H](C)[C@@H](O[C@@H]2O[C@H](C)C[C@H](N(C)C)[C@H]2O)[C@](C)(O)C[C@@H](C)CN(C)[C@H](C)[C@@H](O)[C@]1(C)O [Azithromycin] + CO/N=C(\C(=O)N[C@@H]1C(=O)N2C(C(=O)O)=C(COC(N)=O)CS[C@H]12)c1ccco1 [Cefuroxime]
fitness, one replicate
Conditions	partner 0.04875 µg/mL	partner 0.0975 µg/mL	partner 0.195 µg/mL	partner 1.562 µg/mL	partner 3.125 µg/mL	partner 6.25 µg/mL
B. subtilis 168 [1], first compound 0.25 µg/mL	0.867	0.81	–	0.293	0.262	0.222
B. subtilis 168 [1], first compound 0.5 µg/mL	–	–	–	0.242	0.146	0.0811
B. subtilis 168 [1], first compound 1 µg/mL	–	–	–	0.0319	0.0369	0.0154
B. subtilis 168 [1], first compound 2 µg/mL	0.0565	0.0607	0.0393	–	–	–
S. aureus Newman [2], first compound 0.125 µg/mL	0.967	0.894	0.876	–	–	–
S. aureus Newman [2], first compound 0.25 µg/mL	0.897	0.878	0.802	–	–	–
S. aureus Newman [2], first compound 0.5 µg/mL	0.653	0.612	0.547	–	–	–

fitness, B. subtilis 168 [1]
Conditions	partner 0.04875 µg/mL	partner 0.0975 µg/mL	partner 0.195 µg/mL	partner 0.39 µg/mL	partner 0.78 µg/mL
first compound 0.25 µg/mL	–	–	0.556	0.353	0.305
first compound 0.5 µg/mL	0.708	0.609	–	0.35	0.312
first compound 1 µg/mL	0.463	0.361	0.215	0.171	0.16

Conditions	Bliss interaction score
B. subtilis 168 [4]	0.0595
S. aureus DSM 20231	-0.24
S. aureus Newman [5]	0.0821
S. pneumoniae D39V [6]	0.0571
